In patent publication US20250235458A1, “Benzimidazole derivatives for use in the treatment or prevention of a histiocytosis or a craniopharyngioma” (UNIVERSITE CLAUDE BERNARD LYON 1, priority 2021, published 2025):

Assays:
Format in all cases: cell-based, murine
MutuDC1940 cells [1] = assay: Proliferation assay (confluence by Incucyte)
Method: (§1) 1.5×10^4 cells (MutuDC1940) were plated onto 96 wells plates. Next day, cells were treated at 8 μM of compound 6 or vemurafenib or with the vehicle (DMSO) in presence of 0.3 μg/ml of propidium iodide (Sigma) to detect cell death. Proliferation and cell death were quantified by Incucyte® (Essen Biosciences) according to manufacturer's instructions over 48 h.
The results obtained for the proliferation assay are presented on FIG. 2. FIG. 2 presents the confluence, i.e. the percentage of the surface of the culture dish that is covered by the cells, observed during time for a culture of MutuDC1940 cells, a murine model of histiocytosis, treated at 8 μM with compound 6 according to the invention or with vemurafenib (a MAPK/BRAF inhibitor), or with the vehicle (DMSO).
(§2) The same experiments regarding cell proliferation (assessed by confluence in %) and cell death (assessed by number of dead cells on 13 mm^2) as in Example 1 were repeated with additional ERK/MyD88 inhibitors of formula (I): compounds 2, 7 and 17.
(§3) The same experiments regarding cell proliferation (assessed by confluence in %) and cell death (assessed by number of dead cells on 13 mm^2) as in Example 1 were repeated with a lower concentration, which corresponds to the IC50 of vemurafenib (BRAF inhibitor).

MutuDC1940 cells [2] = assay: CXCL2 quantification assay (ELISA); details: 8 μM, 16 h or 24 h treatment, vs DMSO
Method: 0.5×10^6 cells (MutuDC1940) were plated onto 6-well plates. Next day, cells were treated with 8 μM of compound 6 or DMSO for 16 or 24 hours. Each condition was performed in triplicate. Supernatants were collected and murine CXCL2 was measured by ELISA according to the manufacturer's instructions (Invitrogen).

MutuDC1940 cells [3] = assay: Cell death assay (propidium iodide, number of dead cells by Incucyte)
Method: as §1
The results obtained for the cell death assay are presented on FIG. 3. FIG. 3 presents the number of dead cells observed during time for a culture of MutuDC1940 cells, a murine model of histiocytosis, treated at 8 μM with compound 6 according to the invention or with vemurafenib (a MAPK/BRAF inhibitor), or with the vehicle (DMSO).
as §2, §3

[4] = 8 μM, over 48 h, vs vehicle (DMSO)

SMILES	cell proliferation (confluence in %) (MutuDC1940 cells [1]; [4])	production of CXCL2 (cytokine production) (MutuDC1940 cells [2])	cell death (number of dead cells on 13 mm^2) (MutuDC1940 cells [3]; [4])	cell proliferation (confluence in %) (MutuDC1940 cells [1]; ulixertinib at 1 μM, FIG. 11)	cell death (number of dead cells on 13 mm^2) (MutuDC1940 cells [3]; ulixertinib at 1 μM, FIG. 12)
COc1ccc(NC(=O)c2ccc3[nH]c(-c4ccc(N(C)C)cc4)nc3c2)cn1 [compound 6]	inhibits the proliferation of the cells	induces cytokine production	induces the death of the cells	–	–
CC(C)Nc1cc(-c2c[nH]c(C(=O)N[C@H](CO)c3cccc(Cl)c3)c2)c(Cl)cn1 [ulixertinib, reference compound]	–	–	–	only inhibit proliferation	no effect on cell death
